One block for each molecule: values may come before it.
Key:
[1] = system: Caucasian liver microsomes; assay: Microsomal conversion of estragole by Caucasian liver microsomes (NADPH); type: in vitro ADME, human
Experimental: (§1) The incubation mixtures contained (final concentrations) 3 mM NADPH and 1 mg/mL microsomal protein in 0.2 M Tris–HCl (pH 7.4). Incubations were performed for 10 min at substrate concentrations ranging from 25 to 1000 μM, after which the reaction was terminated by adding 25 μL ice-cold acetonitrile. Blank incubations were performed in the absence of the cofactor NADPH. All incubations were performed in triplicate. In the supporting materials 2, detailed information can be found (Table S1 can be used to keep track of detailed information).
Before UPLC analysis, all samples were centrifuged for 5 min at 16,000 g to precipitate microsomal proteins. Supernatant of each sample was analyzed on UPLC using a BEH C18 (1.7 μm, 2.1 × 50 mm) column with a guard column and a diode array detector (Acquity, Waters). […] Table S1 can be used to keep track of detailed information. […] 3′-Hydroxyanethole was quantified by comparison of the peak areas of the metabolite in the chromatograms obtained at a wavelength of 206 nm to the calibration curve of the synthesized reference compound (Agharahimi and LeBel [1995]; Drinkwater et al. [1976]; Iyer et al. [2003]; Luo et al. [1992]).
(§2) The apparent maximum velocity (V max) and the apparent Michaelis–Menten constant (K m) were determined by fitting the data to this equation using GraphPad Prism version 5.0 (GraphPad software, San Diego California USA).
(§3) The incubation mixtures contained (final concentrations) 3 mM NADPH and 1 mg/ml microsomal protein in 0.2 M Tris-HCl (pH 7.4). […] Incubations were performed for 10 min at substrate concentrations ranging from 25 to 1000 μM, after which the reaction was terminated by adding 25 μl ice-cold acetonitrile. […] Blank incubations were performed in the absence of the cofactor NADPH. All incubations were performed in triplicate.
The flow rate was 0.6 ml/min and the gradient started with 100 % ultrapure water. After 1 min, the amount of acetonitrile was increased to 10 % and kept at that level for 1 min, after which the percentage of acetonitrile was increased to 35 % in 2.5 min and then increased to 100 % over 0.5 minute and kept at 100 % acetonitrile for another 1 min, and finally back to the starting conditions.

Chinese liver S9 = assay: Sulfation of 1′-hydroxyestragole by Chinese liver S9 (PAPS, GSH trapping); type: in vitro ADME, human
Experimental: (§4) The formation of 1′-sulfooxyestragole was determined by incubating 0.2 mg/mL pooled mixed gender Chinese or Caucasian liver S9 in the presence of 0.2 mM PAPS as cofactor and 10 mM GSH as trapping agent for the reactive 1′-sulfooxyestragole in 0.1 M potassium phosphate (pH 8.0). The incubations were carried out for 2 h, and the reactions were terminated by adding 25 μL ice-cold acetonitrile. The blank samples were performed without cofactor. All incubations were performed in triplicate. In the supporting materials 2, detailed information can be found (Table S1 can be used to keep track of detailed information).
(§5) Before UPLC analysis, all samples were centrifuged for 5 min at 16, 000 g to precipitate microsomal or cytosolic proteins. Supernatant of each sample was analyzed on UPLC using a BEH C18 (1.7 μm, 2.1 × 50 mm) column with a guard column and a diode array detector (Acquity, Waters). Secondary metabolism of 1′-hydroxyestragole includes glucuronidation, oxidation, and sulfation. The gradient of analysis of the metabolites of 1′-hydroxyestragole can be found in supporting materials 2. Table S1 can be used to track more detailed information.
(§6) Since the UV spectrum of 3′-hydroxyanethole is similar to that of the GSH adduct of 1′-sulfooxyestragole, quantification of 1′-sulfooxyestragole could be achieved by comparing the peak area of the GSH adduct of 1′-sulfooxyestragole to the calibration curve of 3′-hydroxyanethole at a wavelength 260 nm as described for the quantification of 1′-sulfooxysafrole and 1′-sulfooxyelemicin (Martati et al. [2012]; Van den Berg et al. [2012]). The amount of 1′-sulfooxyestragole GSH adduct formed was corrected for the amount detected in the blank samples performed without the respective cofactor PAPS.
as §2
(§7) The formation of 1'-sulfooxyestragole was determined by incubating 0.2 mg/ml pooled mixed gender Chinese or Caucasian liver S9 in the presence of 0.2 mM PAPS as cofactor and 10 mM GSH as trapping agent for the reactive 1'-sulfooxyestragole in 0.1 M potassium phosphate (pH 8.0). The final volume of the incubations was 100 μl with the substrate 1'-hydroxyestragole ranging from 15 to 2000 μM added from 100 times concentrated stock solutions in DMSO. As previously described by Martati et al. (Martati et al. 2011) and Al-Subeihi et al. (Al-Subeihi et al. 2011), the reactions were started by adding substrate after a pre-incubation at 37 °C for 1 min. The incubations were carried out for 2 hours and the reactions were terminated by adding 25 μl ice-cold acetonitrile. […] The blank samples were performed without cofactor. All incubations were performed in triplicate.
(§8) For detection of the GSH conjugate of 1'-sulfooxyestragole, the flow rate was 0.6 ml/min and the mobile phase was made with acetonitrile and ultrapure water with 0.1 % (v/v) TFA. A linear gradient started from 20 to 30 % acetonitrile in 4.5 min, after which the percentage of acetonitrile was increased to 100 % in 0.3 min and kept at 100 % for another 0.2 min and finally set back to the starting condition.

Chinese liver microsomes = assay: Microsomal conversion of estragole by Chinese liver microsomes (NADPH)
Experimental: as §1
Before UPLC analysis, all samples were centrifuged for 5 min at 16,000 g to precipitate microsomal proteins. Supernatant of each sample was analyzed on UPLC using a BEH C18 (1.7 μm, 2.1 × 50 mm) column with a guard column and a diode array detector (Acquity, Waters). […] Table S1 can be used to keep track of detailed information.
as §2, §3
The flow rate was 0.6 ml/min and the gradient started with 100 % ultrapure water.

Caucasian liver S9 = assay: Sulfation of 1′-hydroxyestragole by Caucasian liver S9 (PAPS, GSH trapping); type: in vitro ADME, human
Experimental: as §4, §5, §6, §2, §7, §8

SULT = SULT mediated conversion of 7-hydroxycoumarin to 7-hydroxycoumarin sulfate, liver S9; type: in vitro ADME, human
Experimental: (§9) The quality of the Chinese and Caucasian liver microsomes was checked by measuring the activity of CYP1A2 and CYP2A6 by the method of Yang et al. ([2012]). The quality of Chinese and Caucasian liver S9 samples was checked by measuring the SULT activity based on the method provided by Wang et al. ([2006]). The details of the methods for the microsomal and S9 in vitro incubations and UPLC analysis for assessing the metabolic capabilities of CYP and SULT enzymes can be found in the supporting materials 1.
(§10) Before UPLC analysis, all samples were centrifuged for 5 min at 16, 000g to precipitate microsomal or cytosolic proteins. Supernatant of each sample was analyzed on UPLC using a BEH C18 (1.7 μm 2.1×50 mm) column with a guard column and a diode array detector (Acquity, Waters).

CYP 2A6 [2] = target: T1, CYP 2A6 (Homo sapiens, UniProt P11509); assay: CYP 2A6 mediated 7-hydroxylation of coumarin, liver microsomes; type: in vitro ADME
T1 construct: tissue PrimeTox (Chinese pool); BD Gentest (Caucasian pool); host or cells: pooled mixed-gender human liver microsomes
T1 sequence (P11509 1-494): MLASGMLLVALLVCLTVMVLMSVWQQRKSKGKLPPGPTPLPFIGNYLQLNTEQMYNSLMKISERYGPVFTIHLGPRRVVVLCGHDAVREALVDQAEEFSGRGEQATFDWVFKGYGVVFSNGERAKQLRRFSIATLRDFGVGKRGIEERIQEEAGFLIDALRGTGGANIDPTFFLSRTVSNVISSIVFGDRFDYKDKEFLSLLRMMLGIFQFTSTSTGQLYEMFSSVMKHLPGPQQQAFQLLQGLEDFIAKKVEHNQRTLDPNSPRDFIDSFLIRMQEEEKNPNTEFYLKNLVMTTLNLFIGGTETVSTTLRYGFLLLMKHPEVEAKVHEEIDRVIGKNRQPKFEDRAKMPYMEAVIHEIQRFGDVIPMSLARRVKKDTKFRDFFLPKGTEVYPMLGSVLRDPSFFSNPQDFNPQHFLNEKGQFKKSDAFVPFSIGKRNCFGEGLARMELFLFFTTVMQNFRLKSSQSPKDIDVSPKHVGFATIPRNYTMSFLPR
Experimental: as §9
The quality of the Chinese and Caucasian liver microsomes was checked by measuring the activity of CYP 1A2 and CYP 2A6 by the method of Yang et al. (Yang et al. 2012). CYP 1A2 and CYP 2A6 are predominant enzymes for formation of 1'-hydroxyestragole (Jeurissen et al. 2007). The activity of CYP 1A2 was measured with the substrate phenacetin, and the activity of CYP 2A6 was checked using the substrate coumarin. […] The samples were centrifuged for 5 min at 16, 000g to precipitate microsomal proteins and analyzed by UPLC.
as §10

CYP 2A6 [3] = target: T1, CYP 2A6; design: method as in Yang et al. 2012; conditions: ref Yang et al. 2012, cited from earlier work
[4] = formation of the metabolite from estragole, Caucasian liver microsomes, average ± SEM
[5] = formation of the metabolite from estragole, Chinese liver microsomes, average ± SEM
[6] = in vitro, liver microsomes, conversion of estragole
[7] = formation from 1′-hydroxyestragole (sulfation), Caucasian liver S9
[8] = formation from 1′-hydroxyestragole (sulfation), Chinese liver S9

SMILES: C=CC(O)c1ccc(OC)cc1 (centres unmarked) [1′-Hydroxyestragole]
Catalytic efficiency (scaled V max / K m) ([1]; formation from estragole, Caucasian, scaled to liver): 40.3 µL/h/g liver | Scaled V max ([1]; formation from estragole, Caucasian, scaled with microsomal protein yield 35 mg/(g tissue)): 2.5 µmol/h/g liver | Catalytic efficiency (V max/K m × 1000) ([1]; formation of the metabolite from estragole, Caucasian liver microsomes): 19.3 µL/min/mg microsomal or S9 protein | K m [1, 4]: 62 ± 9 µM | V max [1, 4]: 1.19 ± 0.04 nmol /min/mg microsomal or S9 protein | Scaled catalytic efficiency for sulfation, lower for Chinese than Caucasian samples (Chinese liver S9; scaled to liver, sulfation of 1′-hydroxyestragole to 1′-sulfooxyestragole): 4.5 fold | Catalytic efficiency (scaled V max / K m) (Chinese liver microsomes; formation from estragole, Chinese, scaled to liver): 15.0 µL/h/g liver | Scaled V max (Chinese liver microsomes; formation from estragole, Chinese, scaled with microsomal protein yield 35 mg/(g tissue)): 0.7 µmol/h/g liver | K m (Chinese liver microsomes; [5]): 49 ± 8 µM | V max (Chinese liver microsomes; [5]): 0.35 ± 0.01 nmol /min/mg microsomal or S9 protein | Catalytic efficiency for formation of the metabolite, lower in Chinese than in Caucasian samples (Chinese liver microsomes; [6]): 2.4 fold | V max for formation of the metabolite, lower in Chinese than in Caucasian samples (Chinese liver microsomes; [6]): 3.4 fold | V max, lower in Chinese than in Caucasian liver incubations (Chinese liver microsomes; scaled kinetic constants (Table 3), conversion of estragole): 3.5 fold

SMILES: C=CC(OS(=O)(=O)O)c1ccc(OC)cc1 (centres unmarked) [1′-Sulfooxyestragole]
Catalytic efficiency (V max/K m × 1000) (Caucasian liver S9; [7]): 0.01 µL/min/mg microsomal or S9 protein | K m (Caucasian liver S9; [7]): 423 ± 159 µM | V max (Caucasian liver S9; [7]): 0.004 ± 0.0005 nmol /min/mg microsomal or S9 protein | Scaled V max (Caucasian liver S9; sulfation of 1′-hydroxyestragole, Caucasian, S9 protein yield 143 mg/(g tissue)): 0.03 µmol/h/g liver | Catalytic efficiency (scaled V max / K m) (Caucasian liver S9; sulfation of 1′-hydroxyestragole, Caucasian, scaled to liver): 0.08 µL/h/g liver | Catalytic efficiency (V max/K m × 1000) (Chinese liver S9; [8]): 0.0021 µL/min/mg microsomal or S9 protein | K m (Chinese liver S9; [8]): 694 ± 321 µM | V max (Chinese liver S9; [8]): 0.0014 ± 0.0002 nmol /min/mg microsomal or S9 protein | Catalytic efficiency for formation of 1′-sulfooxyestragole, lower in Chinese than in Caucasian samples (Chinese liver S9; in vitro, sulfation of 1′-hydroxyestragole, liver S9): fivefold | Scaled V max (Chinese liver S9; sulfation of 1′-hydroxyestragole, Chinese, S9 protein yield 143 mg/(g tissue)): 0.01 µmol/h/g liver | Catalytic efficiency (scaled V max / K m) (Chinese liver S9; sulfation of 1′-hydroxyestragole, Chinese, scaled to liver): 0.02 µL/h/g liver

Km at 10 min (SULT; human, pH 7.4, Chinese liver S9): 1700 nM
SMILES: O=c1ccc2ccc(O)cc2o1 [7-hydroxycoumarin]
Vmax for SULT mediated conversion, both ethnic groups compared (SULT; Chinese and Caucasian liver S9): similar

Catalytic efficiency of CYP 2A6 mediated conversion, lower in Chinese than Caucasian liver microsomes (CYP 2A6 [2]): 1.6 fold
SMILES: O=c1ccc2ccccc2o1 [coumarin]
Catalytic efficiency for CYP 2A6 (CYP 2A6 [3]; Chinese liver microsomes, literature range): 150-1776 µl/min/(mg microsomal protein) | CYP 2A6 catalyzed activity, Chinese versus Caucasian liver microsomes (CYP 2A6 [3]): no difference

Reference: publication PMC5562778 (Archives of Toxicology, 2017)
